From patent publication US8404708B2, “Dual NK1/NK3 receptor antagonists” (Hoffmann-La Roche Inc., priority 2004, dated 2013)
Like-named read-outs stand apart in the source and are kept apart here.

Tests used:
human NK1 receptor = human NK1 receptor (Homo sapiens, UniProt P25103); assay: NK1 receptor binding, [3H]substance P displacement, CHO cell membranes
[1] = molecular target: T1, Recombinant human NK3 (hNK3) receptor (Homo sapiens, UniProt P29371); assay: NK3 receptor binding, [3H]SR142801 displacement, membrane preparations
T1 construct: expressed in transfected cells
T1 sequence (P29371 1-465): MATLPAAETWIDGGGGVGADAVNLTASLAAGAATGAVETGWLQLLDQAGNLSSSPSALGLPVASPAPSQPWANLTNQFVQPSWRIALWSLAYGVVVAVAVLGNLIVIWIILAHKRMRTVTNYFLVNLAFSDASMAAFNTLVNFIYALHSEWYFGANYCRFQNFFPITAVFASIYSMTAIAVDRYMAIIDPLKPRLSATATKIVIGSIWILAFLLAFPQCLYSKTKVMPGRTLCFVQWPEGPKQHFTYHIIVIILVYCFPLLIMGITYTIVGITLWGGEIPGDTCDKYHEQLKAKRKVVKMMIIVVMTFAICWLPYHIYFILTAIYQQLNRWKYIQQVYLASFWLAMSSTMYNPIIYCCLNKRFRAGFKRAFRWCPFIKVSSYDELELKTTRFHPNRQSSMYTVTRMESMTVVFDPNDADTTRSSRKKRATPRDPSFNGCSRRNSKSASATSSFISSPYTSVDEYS
Method in brief: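 hNK3 membranes (~2.5 μg/well) incubated 90 min at room temperature in 50 mM Tris-HCl pH 7.4 with 0.1% BSA, 4 mM MnCl2, 1 μM phosphoramidon. Nonspecific binding defined with 10 μM SB222200; bound [3H]SR142801 separated by filtration on PEI-soaked GF/C filters and counted by scintillation.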

[2] = first value of the cell pKi NK1/NK3, human NK1 receptor, [3H]substance P
[3] = second value of the cell pKi NK1/NK3, hNK3 receptor, [3H]SR142801
[4] = first value of the cell NK1/NK3, read-out: pKi NK1 (converted)
[5] = second value of the cell NK1/NK3, read-out: pKi NK3 (converted)

Sequence of human NK1 receptor (P25103 whole entry): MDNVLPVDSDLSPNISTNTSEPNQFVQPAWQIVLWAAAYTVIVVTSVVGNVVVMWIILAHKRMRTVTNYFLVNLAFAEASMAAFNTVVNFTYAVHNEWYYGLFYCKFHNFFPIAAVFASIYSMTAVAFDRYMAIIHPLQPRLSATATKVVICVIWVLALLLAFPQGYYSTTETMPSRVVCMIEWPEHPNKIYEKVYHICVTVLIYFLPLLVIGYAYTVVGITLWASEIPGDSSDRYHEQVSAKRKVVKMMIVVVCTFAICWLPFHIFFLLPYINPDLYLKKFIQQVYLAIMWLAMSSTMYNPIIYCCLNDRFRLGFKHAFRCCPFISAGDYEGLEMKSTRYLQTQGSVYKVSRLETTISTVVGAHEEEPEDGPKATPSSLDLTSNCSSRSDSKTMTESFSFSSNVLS

SMILES | Ki (human NK1 receptor; [2]) [nM] | Ki [1, 3] [nM] | Ki (human NK1 receptor; [4]) [nM] | pKi NK3 ([1]; second value of the cell NK1/NK3) | Ki [1, 5] [nM]
Cc1ccccc1-c1cc(N2CC[C@H](O)[C@@H](CO)C2)ncc1N(C)C(=O)C(C)(C)c1cc(C(F)(F)F)cc(C(F)(F)F)c1 (racemic) [Example 191, (3RS,4SR)-2-(3,5-Bis-trifluoromethyl-phenyl)-N-(4-hydroxy-3-hydroxymethyl-4′-o-tolyl-3,4,5,6-tetrahydro-2H-[1,2′]bipyridinyl-5′-yl)-N-methyl-isobutyramide] | 2.04 | 24.5 | – | – | –
CN(C(=O)C(C)(C)c1cc(C(F)(F)F)cc(C(F)(F)F)c1)c1cnc(NC[C@H](O)CO)cc1-c1ccccc1Cl [Example 125, (S)-2-(3,5-Bis-trifluoromethyl-phenyl)-N-[4-(2-chloro-phenyl)-6-(2,3-dihydroxy-propylamino)-pyridin-3-yl]-N-methyl-isobutyramide] | 2.82 | 13.8 | – | – | –
Cc1cc(F)ccc1-c1cc(N2C[C@@H](F)C[C@H]2CO)ncc1N(C)C(=O)C(C)(C)c1cc(C(F)(F)F)cc(C(F)(F)F)c1 [Example 298, (2S,4S)-2-(3,5-Bis-trifluoromethyl-phenyl)-N-[6-(4-fluoro-2-hydroxymethyl-pyrrolidin-1-yl)-4-(4-fluoro-2-methyl-phenyl)-pyridin-3-yl]-N-methyl-isobutyramide] | – | – | 1.55 | 9.15 | –
CN(C(=O)C(C)(C)c1cc(C(F)(F)F)cc(C(F)(F)F)c1)c1cnc(N2C[C@@H](O)C[C@H]2CO)cc1-c1ccccc1C#N [Example 245, (2S,4S)-2-(3,5-Bis-trifluoromethyl-phenyl)-N-[4-(2-cyano-phenyl)-6-(4-hydroxy-2-hydroxymethyl-pyrrolidin-1-yl)-pyridin-3-yl]-N-methyl-isobutyramide] | – | – | 1.2 | – | 1.1
Cc1cc(F)ccc1-c1cc(N2CCC[C@H]2COC(=O)N(C)C)ncc1N(C)C(=O)C(C)(C)c1cc(C(F)(F)F)cc(C(F)(F)F)c1 [Example 303, (S)-Dimethyl-carbamic Acid 1-[5-{[2-(3,5-bis-trifluoromethyl-phenyl)-2-methyl-propionyl]-methyl-amino}-4-(4-fluoro-2-methyl-phenyl)-pyridin-2-yl]-pyrrolidin-2-ylmethyl Ester] | – | – | 1.32 | – | 15.1
CN(C(=O)C(C)(C)c1cc(Cl)cc(Cl)c1)c1cnc(N2CCC[C@H]2CO)cc1-c1ccccc1Cl [Example 2, (S)-N-[4-(2-Chloro-phenyl)-6-(2-hydroxymethyl-pyrrolidin-1-yl)-pyridin-3-yl]-2-(3,5-dichloro-phenyl)-N-methyl-isobutyramide] | 3.39 | 0.891 | – | – | –
Cc1ncccc1-c1cc(N2C[C@@H](O)C[C@H]2CO)ncc1N(C)C(=O)C(C)(C)c1cc(C(F)(F)F)cc(C(F)(F)F)c1 [Example 255, (2S,4S)-2-(3,5-Bis-trifluoromethyl-phenyl)-N-[6′-(4-hydroxy-2-hydroxymethyl-pyrrolidin-1-yl)-2-methyl-[3,4′]bipyridinyl-3′-yl]-N-methyl-isobutyramide] | – | – | 0.955 | – | 10.7
CN(C(=O)C(C)(C)c1cc(C(F)(F)F)cc(C(F)(F)F)c1)c1cnc(N2C[C@H](O)C[C@@H](O)C2)cc1-c1ccccc1Cl [Example 180, (3R,5R)-2-(3,5-Bis-trifluoromethyl-phenyl)-N-[4′-(2-chloro-phenyl)-3,5-dihydroxy-3,4,5,6-tetrahydro-2H-[1,2′]bipyridinyl-5′-yl]-N-methyl-isobutyramide] | 1.62 | 3.24 | – | – | –
C[C@@H](O)[C@H](CO)Nc1cc(-c2ccccc2Cl)c(N(C)C(=O)C(C)(C)c2cc(C(F)(F)F)cc(C(F)(F)F)c2)cn1 [Example 146, (1S,2R)-2-(3,5-Bis-trifluoromethyl-phenyl)-N-[4-(2-chloro-phenyl)-6-(2-hydroxy-1-hydroxymethyl-propylamino)-pyridin-3-yl]-N-methyl-isobutyramide] | 0.891 | 11.7 | – | – | –
